The test system of data set [1] is ulcers induced by ligature of the pylorus. Kind of data set: Antiulcer activity against ulcers induced by ligature of the pylorus (Shay test). Type of data set: in vivo, rat (Sprague Dawley). As to conditions: rat, oral. Here is the method:
2. ANTIULCER ACTIVITY against ulcers induced by ligature of the pylorus (Shay test): Groups of 10 Sprague Dawley rats of body weight between 200 and 250 grams were placed in cages under conditions of standard temperature (21°±2° C.), standard relative humidity (60-70%) and standard light (12 hours per day).
The animals were fed with rat pellets and with water at will.
The derivatives to be tested were administered orally 6, 12, 24 and 36 hours before ligature of the pylorus, after dispersion in physiological solution using Tween 80 as dispersant in a quantity of 1% and carboxymethylcellulose in a quantity of 0.2%. The volume administered was 10 ml/kg.
Before ligature, the rats had been kept without food for 18 hours but with free access to water, the pylorus ligature then being made under ether anesthetic, with suture of the peritoneum and of the abdominal wall.
The animals were then kept without food or water, and 18 hours after ligature were sacrificed using chloroform, their stomachs then being withdrawn and opened along the small curvature.
The gastric surface was extended to observe the ulcers, the evaluation being made by measuring their maximum width.

The test system of data set [2] is ulcers induced by cold stress. Description: Antiulcer activity against ulcers induced by cold stress. The class given is in vivo, rat (Wistar). The settings on record: rat, oral. Here is the method: 3. ANTIULCER ACTIVITY against ulcers induced by cold stress: This trial was carried out on Wistar rats weighing about 300 grams each.
The animals were divided randomly into groups of 10 animals each and kept without food for 18 hours before the trial, but had unrestricted water. […]
After ligature, the animals were placed in a refrigerator at a temperature of between 2° C. and 4° C. for two hours.
After this time the rats were sacrificed, their stomachs were withdrawn and opened along the small curvature, and the gastric mucosa checked.
The number of ulcers was counted and their relative diameters measured. From these individual data the mean value for each treatment group was obtained and the inhibition capacity calculated as a percentage relative to the control group, using the following formula: [formula] where C is the mean value in mm for the control group and T the mean value for the group treated with the derivative under examination.

Data set [3] in a line: Acute toxicity in rats, endoperitoneal administration (LD50, Lichtfield and Wilcoxon). Set-up: species or system rat (Wistar). As to conditions: in vivo, ip, rat, mortality within eight days. Here is the method:
(§1) Acute toxicity was determined on Swiss albino mice having an average weight of about 20 grams and on Wistar rats having an average weight of 150±10 grams by endoperitoneal administration. All animals were kept fasting for 12 hours before the trial. For the trial, 10 animals, namely 5 males and 5 females, were used for each dose level.
(§2) The LD50 values, expressed as mg/kg, are calculated on the basis of the mortality determined within eight days from administration, in accordance with the Lichtfield and Wilcoxon method.

Data set [4] in a line: Acute toxicity in mice, endoperitoneal administration (LD50, Lichtfield and Wilcoxon). Set-up: species or system mouse (Swiss albino). As to conditions: in vivo, ip, mouse, mortality within eight days. Here is the method: as §1, §2
For data set [5] the following is noted: species not given, prior art; cited from earlier work.
For data set [6] the following is noted: prior art, cited from earlier work.
[7] abbreviates: 6 h before pylorus ligature, read-out: ED50 by oral administration at 6 h before pylorus ligature.
Setting [8] is: 12 h before pylorus ligature, * P < 0.05 versus WAS 4303 (so in the source), read-out: ED50 by oral administration at 12 h before pylorus ligature.
Setting [9] is: 24 h before pylorus ligature, * P < 0.05 versus WAS 4303 (so in the source), read-out: ED50 by oral administration at 24 h before pylorus ligature.
[10] abbreviates: 36 h before pylorus ligature, * P < 0.05 versus WAS 4303 (so in the source), read-out: ED50 by oral administration at 36 h before pylorus ligature.
The mark [11] stands for this setting: 6 h before cold stress, read-out: ED50 by oral administration at 6 h before commencement of cold stress.
The mark [12] stands for this setting: 12 h before cold stress, * P < 0.05 versus WAS 4303 (so in the source), read-out: ED50 by oral administration at 12 h before commencement of cold stress.
The mark [13] stands for this setting: 24 h before cold stress, * P < 0.05 versus WAS 4303 (so in the source), read-out: ED50 by oral administration at 24 h before commencement of cold stress.
The mark [14] stands for this setting: 36 h before cold stress, * P < 0.05 versus WAS 4303 (so in the source), read-out: ED50 by oral administration at 36 h before commencement of cold stress.

Consider five molecules from patent US4990522A, “Esterified ephedrine derivatives with prolonged antiulcer activity” (Establissement Texcontor, priority 1987, dated 1991).

Like-named read-outs stand apart in the source and are kept apart here.

As to `C[C@@H]([C@H](OC(=O)c1cccs1)c1ccccc1)N(C)CC=C1c2ccccc2CCc2ccccc21` (relative stereo) [ET 2004], the ED50 worked out at 0.5 mg/kg in data set [1] (setting [7]); 0.4 mg/kg in data set [1] (setting [8]); 0.6 mg/kg in data set [1] (setting [9]); 1 mg/kg in data set [1] (setting [10]); 0.6 mg/kg in data set [2] (setting [11]); 0.8 mg/kg in data set [2] (setting [12]). Besides, the ED50 worked out at 1.4 mg/kg in data set [2] (setting [13]) and 1.8 mg/kg in data set [2] (setting [14]). The LD50 at 192 h in data set [3] worked out at 681 mg/kg; in data set [4], 630 mg/kg.
Take `C[C@@H]([C@H](OC(=O)c1cccnc1)c1ccccc1)N(C)CC=C1c2ccccc2CCc2ccccc21` (relative stereo) [ET 2003]: the ED50 amounted to 0.4 mg/kg in data set [1] (setting [7]); 0.4 mg/kg in data set [1] (setting [8]); 0.7 mg/kg in data set [1] (setting [9]); 1.2 mg/kg in data set [1] (setting [10]); 0.6 mg/kg in data set [2] (setting [11]); 0.9 mg/kg in data set [2] (setting [12]). The ED50 in data set [2] (setting [13]) is 1.3 mg/kg; in data set [2] (setting [14]) it was 1.7 mg/kg. Besides, the values for the LD50 at 192 h in data set [3] and in data set [4] were 618 mg/kg and 580 mg/kg, respectively.
With `C[C@@H]([C@H](OC(=O)C(N)Cc1cnc[nH]1)c1ccccc1)N(C)CC=C1c2ccccc2CCc2ccccc21` (some centres unmarked) [ET 2002], the ED50 in data set [1] (setting [7]) was found to be 0.4 mg/kg; in data set [1] (setting [8]) it was 0.5 mg/kg; in data set [1] (setting [9]) it was 0.8 mg/kg; in data set [1] (setting [10]), 1.1 mg/kg; in data set [2] (setting [11]), 0.7 mg/kg; in data set [2] (setting [12]), 1 mg/kg. Moreover, the ED50 in data set [2] (setting [13]) came out at 1.4 mg/kg; in data set [2] (setting [14]), 1.9 mg/kg. Further, the LD50 at 192 h in data set [3] came to 590 mg/kg; in data set [4], 535 mg/kg.
Regarding `CCCCCCCCCC(=O)O[C@H](c1ccccc1)[C@H](C)N(C)CC=C1c2ccccc2CCc2ccccc21` (relative stereo) [ET 2001], the ED50 in data set [1] (setting [7]) was 0.5 mg/kg; in data set [1] (setting [8]), 0.5 mg/kg; in data set [1] (setting [9]), 0.7 mg/kg; in data set [1] (setting [10]), 1.3 mg/kg; in data set [2] (setting [11]) it was 0.4 mg/kg; in data set [2] (setting [12]), 0.9 mg/kg. Besides, the ED50 turned out to be 1.2 mg/kg in data set [2] (setting [13]) and 2.1 mg/kg in data set [2] (setting [14]). Moreover, the LD50 at 192 h turned out to be 510 mg/kg in data set [3] and 585 mg/kg in data set [4].
Consider `C[C@@H]([C@H](O)c1ccccc1)N(C)CC=C1c2ccccc2CCc2ccccc21` (relative stereo) [WAS 4304, reference compound], for which the “LD50 for intraperitoneal administration” value in data set [5] is on record as 115 mg/kg. Also, the ED50 in data set [1] (setting [7]) was 0.2 mg/kg; in data set [1] (setting [8]), 1.1 mg/kg; in data set [1] (setting [9]), 1.8 mg/kg; in data set [1] (setting [10]), 2.4 mg/kg; in data set [2] (setting [11]), 0.4 mg/kg; in data set [2] (setting [12]), 1.6 mg/kg. Also, the ED50 in data set [2] (setting [13]) came out at 2.5 mg/kg; in data set [2] (setting [14]) it was 2.8 mg/kg. Also, the “antiulcer activity when administered intraperitoneally” value in data set [6] (intraperitoneal, experimental tests) is listed as “very interesting antiulcer activity”. Besides, in data set [6], the duration of activity entry is on record as “very limited duration”. In addition, the figures for the LD50 at 192 h in data set [3] and in data set [4] were 87 mg/kg and 127 mg/kg, respectively.
